Laboratory results from the Deep4Chem optical property database.
Each block holds one compound with its values, some of them ahead of it.

Test: solvent given as SMILES

SMILES: CC[n+]1c(/C=C/c2c([O-])ccc3ccc(=O)oc23)sc2ccccc21
absorption maximum (in C1CCOC1): 607.14 nm | absorption maximum (in CC#N): 579.15 nm | absorption maximum (in CC(C)=O): 590.56 nm | absorption maximum (in CO): 519.07 nm | absorption maximum (in CS(C)=O): 581.28 nm | absorption maximum (in Cc1ccccc1): 623.57 nm | absorption maximum (in ClC(Cl)Cl): 593.91 nm | absorption maximum (in ClCCl): 597.56 nm | absorption maximum (in O): 492.76 nm

SMILES: N#Cc1cc(C#N)c(-c2cc(-n3c4ccccc4c4ccccc43)cc(-n3c4ccccc4c4ccccc43)c2)cc1-c1ccc(N(c2ccccc2)c2ccccc2)cc1
absorption maximum (in Cc1ccccc1): 405 nm

SMILES: O=C(O)C1=C(C(=O)O)C2=C[C@H]3c4ccccc4[C@]2([Se]1)c1ccccc13
absorption maximum (in ClCCl): 421 nm

SMILES: CCOC(=O)C1=C(N)n2c(=O)c3ccccc3c(=O)n2C1c1cccs1 (stereo not given)
absorption maximum (in CS(C)=O): 365 nm

SMILES: CCNc1cc2c(cc1C)C(c1ccccc1C(=O)O)=C1CCCC(/C=C/C3=[N+](C)c4ccccc4C3(C)C)=C1O2
absorption maximum (in CC#N): 696 nm | absorption maximum (in CCO): 688 nm | absorption maximum (in CO): 690 nm | absorption maximum (in ClC(Cl)Cl): 702 nm

SMILES: NS(=O)(=O)c1ccc(N2N=C(c3ccc(O)cc3)CC2c2ccc([N+](=O)[O-])cc2)cc1 (stereo not given)
absorption maximum (in C1CCOC1): 353 nm | absorption maximum (in C1COCCO1): 353 nm | absorption maximum (in CC#N): 352 nm | absorption maximum (in CC(C)O): 352 nm | absorption maximum (in CCO): 352 nm | absorption maximum (in CCOC(C)=O): 352 nm | absorption maximum (in CN(C)C=O): 355 nm | absorption maximum (in CO): 351 nm | absorption maximum (in CS(C)=O): 358 nm | absorption maximum (in O): 354 nm

SMILES: C1=Cc2ccccc2C(=Cc2ccc(-c3cc(-c4ccc(C=C5c6ccccc6C=Cc6ccccc65)cc4)cc(-c4ccc(C=C5c6ccccc6C=Cc6ccccc65)cc4)c3)cc2)c2ccccc21
absorption maximum (in C1CCOC1): 325 nm

SMILES: CCN(CC)c1ccc(/C=C/C(=O)c2c(O)cc(C)oc2=O)cc1
absorption maximum (in CC#N): 476 nm | absorption maximum (in CCCO): 468 nm | absorption maximum (in CCO): 488 nm | absorption maximum (in CCOC(C)=O): 472 nm | absorption maximum (in Cc1ccccc1): 471 nm | absorption maximum (in ClCCl): 480 nm

SMILES: CC(=O)OC[C@@H]1O[C@H](n2cnc3c2N=CN2Cc4c[n+](C)c(C)nc4N=C32)[C@@H](O)[C@H]1O
absorption maximum (in CC#N): 392 nm | absorption maximum (in CCO): 389 nm | absorption maximum (in O): 383 nm

SMILES: CCOC(=O)CN1C(=O)C2=C(c3ccc(C#N)cc3)N(CC(=O)OCC)C(=O)C2=C1c1ccc(C#N)cc1
absorption maximum (in CC#N): 473 nm | absorption maximum (in CS(C)=O): 480 nm | absorption maximum (in Cc1ccccc1): 482 nm

SMILES: c1cc2c([nH]c3c4[nH]c5sccc5c4c4nsnc4c23)s1
absorption maximum (in C1CCOC1): 420 nm | absorption maximum (in CCOC(C)=O): 414 nm | absorption maximum (in CN(C)C=O): 423 nm | absorption maximum (in Cc1ccccc1): 411 nm | absorption maximum (in ClCCl): 415 nm

SMILES: CC1=CC(C)=[N+]2C1=C(c1ccc(N3CCOCC3)cc1)c1c(C)cc(C)n1[B-]2(F)F
absorption maximum (in C1CCOC1): 500 nm | absorption maximum (in CC#N): 496 nm | absorption maximum (in CC(=O)C(C)(C)C): 495 nm | absorption maximum (in CC(C)=O): 490 nm | absorption maximum (in CCCCCC): 498 nm | absorption maximum (in CCOC(C)=O): 498 nm | absorption maximum (in CO): 494 nm

SMILES: CCCC1=Cc2nc1ccc1[nH]c(cc1CCC)c1nc(ccc3[nH]c2cc3CCC)C(CCC)=C1
absorption maximum (in Cc1ccccc1): 667 nm

SMILES: CCC1=C(C)C2=Cc3ccccc3B(O)N2C1=O
absorption maximum (in CC#N): 358 nm | absorption maximum (in CCCCCC): 378 nm | absorption maximum (in CO): 359 nm | absorption maximum (in CS(C)=O): 361 nm | absorption maximum (in ClC(Cl)Cl): 362 nm

SMILES: CC(=O)c1c2c(cc3cc(N(C)C)ccc13)CCC2
absorption maximum (in C1CCCCC1): 363 nm | absorption maximum (in C1CCOC1): 370 nm | absorption maximum (in C1COCCO1): 370 nm | absorption maximum (in CC#N): 370 nm | absorption maximum (in CCO): 374 nm | absorption maximum (in CS(C)=O): 374 nm | absorption maximum (in Cc1ccccc1): 368 nm | absorption maximum (in ClC(Cl)Cl): 373 nm | absorption maximum (in ClCCl): 372 nm

SMILES: N#CC(C#N)=Cc1ccc2c(c1)c1ccccc1n2-c1cc2ccccc2c2ccccc12
absorption maximum (in CC#N): 395 nm | absorption maximum (in CCCCC): 393 nm | absorption maximum (in Cc1ccccc1): 402 nm | absorption maximum (in ClCCl): 406 nm

SMILES: CN(C)c1ccc(/C=C/c2nc3c4ccccc4c4ccccc4c3[nH]2)cc1
absorption maximum (in C1CCOC1): 390 nm | absorption maximum (in C1COCCO1): 389 nm | absorption maximum (in CC1CCCCC1): 386 nm | absorption maximum (in CC#N): 389 nm | absorption maximum (in CCOC(C)=O): 387 nm | absorption maximum (in CCOCC): 386 nm | absorption maximum (in CN(C)C=O): 392 nm | absorption maximum (in COC(C)=O): 389 nm | absorption maximum (in CS(C)=O): 396 nm | absorption maximum (in Cc1ccccc1): 393 nm | absorption maximum (in ClC(Cl)Cl): 393 nm

SMILES: COc1ccc(C2=C/C(=C\c3ccc(C#N)cc3)C(=O)O2)cc1OC
absorption maximum (in C1COCCO1): 428 nm

SMILES: c1csc(-c2ccc(-c3ccc(-c4cccs4)s3)s2)c1
absorption maximum (in CCCCCCCCCCCCCC): 391 nm | absorption maximum (in ClCCl): 393 nm

SMILES: CC1=CC(C)=[N+]2C1=C(c1ccc(N(C)C)cc1)c1c(C)cc(/C=C/c3ccc(N(C)C)cc3)n1[B-]2(F)F
absorption maximum (in CCOCC): 591 nm

SMILES: CC1(C)C(=O)C=Cc2ccc(N3CCC3)cc21
absorption maximum (in O): 387 nm

SMILES: Cc1cc(O)c(C(=O)/C=C/c2cccc(O)c2)c(=O)o1
absorption maximum (in CC#N): 367 nm | absorption maximum (in ClCCl): 374 nm

SMILES: CCCCOc1c(OC)cc2cc(OC)c(OCCCC)c3c4c(OCCCC)c(OC)cc5cc(OC)c(OCCCC)c(c1c23)c54
absorption maximum (in ClCCl): 451 nm

SMILES: CC[N+](CC)=c1ccc2c(-c3ccccc3C(=O)O)c3c(=O)oc4c5c6c(cc4c3oc-2c1)CCCN6CCC5
absorption maximum (in CCO): 612 nm | absorption maximum (in ClC(Cl)Cl): 623 nm | absorption maximum (in O): 612 nm

SMILES: CC(=O)O[B-]1(OC(C)=O)OC(/C=C/c2cccc3ccccc23)=CC(/C=C/c2cccc3ccccc23)=[O+]1
absorption maximum (in C1CCOC1): 464 nm | absorption maximum (in CC#N): 468 nm | absorption maximum (in CC(C)=O): 464 nm | absorption maximum (in CS(C)=O): 478 nm | absorption maximum (in Cc1ccccc1): 468 nm | absorption maximum (in ClC(Cl)Cl): 474 nm | absorption maximum (in ClCCl): 472 nm

SMILES: N#Cc1cc(-c2ccc(N3c4ccccc4Oc4ccccc43)cc2)c(-c2ccc(N3c4ccccc4Oc4ccccc43)cc2)cc1C#N
absorption maximum (in Cc1ccccc1): 406 nm

SMILES: CCCCCCCCCCOc1cc(OCCCCCCCCCC)cc(C2=C3C(C)=CC(/C=C/c4ccc(OC)cc4)=[N+]3[B-](F)(F)n3c(/C=C/c4ccc(OC)cc4)cc(C)c32)c1
absorption maximum (in ClC(Cl)Cl): 645 nm

SMILES: Cc1cc(C)c(C)c(-c2ccc3cc(C)c(=O)oc3c2)c1C
absorption maximum (in C1CCCCC1): 312 nm | absorption maximum (in CC#N): 314 nm | absorption maximum (in CO): 315 nm

SMILES: COc1ccc(/C=C/C2=[O+][B-](F)(F)OC(/C=C/c3ccc(OC)c4ccccc34)=C2c2ccccc2)c2ccccc12
absorption maximum (in CC#N): 550 nm | absorption maximum (in CC(C)=O): 549 nm | absorption maximum (in CCOC(C)=O): 542 nm | absorption maximum (in CCOCC): 540 nm | absorption maximum (in ClC(Cl)(Cl)Cl): 542 nm | absorption maximum (in ClCCl): 556 nm

SMILES: CCCCCCCCCCCCOc1cc2c3c(ccc4c5c(SCCCCCCCCCCCC)cc6c7c(ccc(c1c34)c75)C(=O)N(C1CCCCC1)C6=O)C(=O)N(C1CCCCC1)C2=O
absorption maximum (in ClC(Cl)Cl): 568 nm

Next, values leading:

absorption maximum (in ClCCl): 350 nm
SMILES: CC(C)(C)NC(=O)c1ccc(-c2cc3ccccc3s2)c2ccc3c4ccccc4c4ccccc4c3c12

absorption maximum (in C1CCOC1): 344 nm
SMILES: N#Cc1c(N2CCCCC2)cc(-c2ccc3ccc4cccc5ccc2c3c45)c2c1C(=O)c1ccccc1-2

absorption maximum (in C1CCOC1): 761 nm | absorption maximum (in CN(C)C=O): 764 nm | absorption maximum (in ClCCl): 762 nm | absorption maximum (in c1ccccc1): 765 nm
SMILES: F[B-]1(F)n2c(c3cc4ccccc4cc3c2-c2ccccc2)C=C2c3cc4ccccc4cc3C(c3ccccc3)=[N+]21

absorption maximum (in C1CCOC1): 730 nm | absorption maximum (in ClC(Cl)Cl): 731 nm
SMILES: COc1ccc(-c2cc3c(s2)=CC2=C(C(F)(F)F)c4cc5sc(-c6ccc(OC)cc6)cc5n4[B-](F)(F)[N+]=32)cc1

absorption maximum (in CC#N): 403 nm | absorption maximum (in ClCCCl): 420 nm
SMILES: c1ccc(-c2cc(-c3ccccc3)[o+]c(-c3ccccc3)c2)cc1

absorption maximum (in CC#N): 407 nm
SMILES: COc1ccc(-c2nc(/C(C#N)=C/c3ccc(C#N)cc3)sc2-c2ccc(OC)cc2)cc1

absorption maximum (in ClCCl): 441 nm
SMILES: O=C1c2ccccc2-c2nc3c4ccccc4c4ccccc4c3n21

absorption maximum (in CN(C)C=O): 658 nm
SMILES: c1ccc(CO[Si]23n4c5c6ccccc6c4/N=C4N=C(/N=c6/c7ccccc7c(n62)=c2c6ccccc6c(n23)=N5)c2ccccc2\4)cc1 (stereo not given)

absorption maximum (in C1CCCCC1): 340 nm | absorption maximum (in CO): 340 nm
SMILES: C(=C\c1nc2ccccc2s1)/c1ccccc1

absorption maximum (in ClCCl): 357 nm
SMILES: CCn1c2ccccc2c2c(N(c3ccccc3)c3ccccc3)cccc21

absorption maximum (in ClC(Cl)Cl): 430 nm
SMILES: F[B-]1(F)OC(c2ccc(C(F)(F)F)cc2)=Cc2c3ccccc3c3ccccc3[n+]21

absorption maximum (in CO): 305 nm
SMILES: COc1ccc(-c2nc(-c3ccccc3)c(-c3ccccc3)[nH]2)cc1

absorption maximum (in C1CCOC1): 411 nm
SMILES: O=c1oc2cccc3c4cccc5ccc6c7cc(F)ccc7c1c(c23)c6c54

absorption maximum (in CCCCCCC): 405 nm
SMILES: c1cc2c3c(cccc3c1)-c1c-2ccc2c1ccc1ccccc12

absorption maximum (in C1CCOC1): 513 nm
SMILES: C[Si](C)(C)c1ccc(-c2ccc(-c3ccc(-c4ccc(-c5ccc([Si](C)(C)C)s5)s4)c4nsnc34)s2)s1

absorption maximum (in ClCCl): 396 nm
SMILES: Clc1cc(Cl)c(B2c3ccccc3Nc3ccccc32)c(Cl)c1

absorption maximum (in ClC(Cl)Cl): 509 nm
SMILES: N#CC(C#N)=Cc1ccc(-c2ccc(N(c3ccccc3)c3ccccc3)cc2)o1

absorption maximum (in CCO): 568 nm | absorption maximum (in ClCCl): 570 nm
SMILES: Ic1ccc(-c2c3ccc(=[N+]4CCCCC4)cc-3oc3cc(N4CCCCC4)ccc23)cc1

absorption maximum (in ClCCl): 495 nm
SMILES: CCc1cccc(CC)c1-c1c2ccccc2c(-c2c(CC)cccc2CC)c2cc3ccccc3cc12

absorption maximum (in ClC(Cl)Cl): 384 nm
SMILES: c1ccc(-c2nc(-c3ccccc3)c(N(c3ccccc3)c3ccccc3)[se]2)cc1

absorption maximum (in ClCCl): 321 nm
SMILES: CCOC(=O)c1c(-c2c(Cl)c3ccccc3oc2=O)nn(-c2cccc(C)c2)c1C(=O)OCC

absorption maximum (in ClC(Cl)Cl): 401 nm
SMILES: c1ccc2c([SiH](c3c4ccccc4cc4ccccc34)c3c4ccccc4cc4ccccc34)c3ccccc3cc2c1
